Our source for the IC50 values is patent US8841312B2, “Fused pyridine, pyrimidine and triazine compounds as cell cycle inhibitors” (Amgen Inc., priority 2007, dated 2014).

Structures are written as SMILES.

The target of the experiment is Cdk4/CyclinD1 (Homo sapiens (Human), UniProt P11802). The experiment is described as follows: Cdk4 kinase inhibition assay with recombinant Cdk4/CyclinD1, Rb substrate, [33P]-ATP filter plate. The experiment is classed as biochemical. To be noted: 25 μM ATP, read-out: Cdk 4 IC50. The essentials: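 Recombinant Cdk4/CyclinD1 or Cdk6/CyclinD3 phosphorylated Rb protein with [33P]-ATP for 1 h at room temperature. Protein was TCA-precipitated on filter plates and bound radioactivity counted. IC50 by nonlinear regression.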
Cdk4/CyclinD1, sequence (P11802 whole entry): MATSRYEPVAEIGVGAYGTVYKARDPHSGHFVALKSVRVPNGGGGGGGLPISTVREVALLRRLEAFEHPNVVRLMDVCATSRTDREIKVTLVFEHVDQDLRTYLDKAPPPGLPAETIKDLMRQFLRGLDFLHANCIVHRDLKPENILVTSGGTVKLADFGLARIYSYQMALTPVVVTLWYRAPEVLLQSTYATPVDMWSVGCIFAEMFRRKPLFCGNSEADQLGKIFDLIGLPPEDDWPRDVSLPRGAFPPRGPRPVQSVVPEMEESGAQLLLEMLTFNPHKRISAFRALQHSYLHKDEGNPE
Cdk4/CyclinD1, sequence (P24385 whole entry partner): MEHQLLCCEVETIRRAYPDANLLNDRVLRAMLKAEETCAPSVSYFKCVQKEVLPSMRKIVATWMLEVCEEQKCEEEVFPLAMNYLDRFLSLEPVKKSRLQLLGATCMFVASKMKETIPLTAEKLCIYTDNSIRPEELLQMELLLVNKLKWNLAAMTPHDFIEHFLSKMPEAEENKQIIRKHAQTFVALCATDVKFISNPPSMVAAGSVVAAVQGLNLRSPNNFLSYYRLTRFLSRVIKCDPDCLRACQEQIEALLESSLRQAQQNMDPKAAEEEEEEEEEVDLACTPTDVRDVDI
What is called IC50 is the concentration at which inhibition is half-maximal. `O[C@@H]1CCN(c2ccc(Nc3ncc4c5ccncc5n([C@H]5CCC[C@H]5O)c4n3)nn2)C1` [Example 366]: the half-inhibitory concentration (IC50) amounted to 330 nM.
Regarding `CNC1CCN(c2ccc(Nc3ncc4c5ccncc5n([C@@H](C)CO)c4n3)nc2)CC1` [Example 367], the IC50 amounted to 350 nM.
Under `C[C@@H](CO)n1c2cnccc2c2cnc(Nc3ccc(N4CC[C@@H](O)C4)cn3)nc21` [Example 368] stands 284 nM.
Under `C[C@@H](CO)n1c2cnccc2c2cnc(Nc3ccc(N4CCC(N(C)C)CC4)cn3)nc21` [Example 370] stands 161 nM; under `O[C@@H]1CCN(c2ccc(Nc3ncc4c5ccncc5n([C@H]5CCC[C@H]5O)c4n3)nc2)C1` [Example 371], 123 nM; under `C[C@@H](CO)n1c2cnccc2c2cnc(Nc3ccc(N4CCC(N(C)C)CC4)nn3)nc21` [Example 372], 129 nM.
Take `CNC1CCN(c2ccc(Nc3ncc4c5ccncc5n([C@@H](C)CO)c4n3)nn2)CC1` [Example 373]: the IC50 worked out at 45 nM.
Under `C[C@@H](CO)n1c2cnccc2c2cnc(Nc3ccc(N4CC[C@@H](O)C4)nn3)nc21` [Example 374] stands 86 nM; under `C[C@H](CO)n1c2cnccc2c2cnc(Nc3ccc(N4CCNCC4)cn3)nc21` [Example 375], 40 nM; under `C[C@H](CO)n1c2cnccc2c2cnc(Nc3ccc(N4CCC(N(C)C)CC4)cn3)nc21` [Example 376], 50 nM.
In the case of `C[C@H]1CN(c2ccc(Nc3ncc4c5ccncc5n([C@@H](C)CO)c4n3)nn2)CCN1` [Example 377], the IC50 came out at 73 nM.
For `C[C@@H](CO)n1c2cnccc2c2cnc(Nc3ccc(N4CCNC(C)(C)C4)cn3)nc21` [Example 378] the value was 85 nM; for `C[C@@H](CO)n1c2cnccc2c2cnc(Nc3ccc(N4CCNC(C)(C)C4)nn3)nc21` [Example 379], 11 nM; for `CNC1CCN(c2ccc(Nc3ncc4c5ccncc5n([C@H](C)CO)c4n3)nc2)CC1` [Example 380], 261 nM.
Take `C[C@H](CO)n1c2cnccc2c2cnc(Nc3ccc(N4CCN[C@@H](C)C4)cn3)nc21` [Example 381]: the half-maximal inhibitory concentration (IC50) came out at 2000 nM.
Under `C[C@H](CO)n1c2cnccc2c2cnc(Nc3ccc(N4CC[C@@H](O)C4)cn3)nc21` [Example 382] stands 152 nM.
For `C[C@H](CO)n1c2cnccc2c2cnc(Nc3ccc(N4CCNC(C)(C)C4)cn3)nc21` [Example 383] the value was 62 nM; for `C[C@H](CO)n1c2cnccc2c2cnc(Nc3ccc(N4CCNCC4)nn3)nc21` [Example 384], 143 nM.
For `C[C@H](CO)n1c2cnccc2c2cnc(Nc3ccc(N4CCC(N(C)C)CC4)nn3)nc21` [Example 385] the value was 216 nM.
Consider `CNC1CCN(c2ccc(Nc3ncc4c5ccncc5n([C@H](C)CO)c4n3)nn2)CC1` [Example 386], for which the IC50 turned out to be 53 nM.
`C[C@H](CO)n1c2cnccc2c2cnc(Nc3ccc(N4CCN[C@@H](C)C4)nn3)nc21` [Example 387]: the IC50 is 227 nM.
Under `C[C@H](CO)n1c2cnccc2c2cnc(Nc3ccc(N4CCNC(C)(C)C4)nn3)nc21` [Example 388] stands 218 nM.
For `C[C@H](CO)n1c2cnccc2c2cnc(Nc3ccc(N4CC[C@@H](O)C4)nn3)nc21` [Example 389] the value was 166 nM; for `CN(C)C1CCN(c2ccc(Nc3ncc4c5ccncc5n([C@@H]5CCOC5)c4n3)nn2)CC1` [Example 391], 184 nM; for `O[C@@H]1CCN(c2ccc(Nc3ncc4c5ccncc5n([C@@H]5CCOC5)c4n3)nn2)C1` [Example 392], 219 nM.
For `CNC1CCN(c2ccc(Nc3ncc4c5ccncc5n([C@H]5CCC[C@H]5O)c4n3)nc2)CC1` [Example 393] the value was 300 nM; for `CN(C)C1CCN(c2ccc(Nc3ncc4c5ccncc5n([C@H]5CCOC5)c4n3)nc2)CC1` [Example 394], 1190 nM.
As for `CN(C)C1CCN(c2ccc(Nc3ncc4c5ccncc5n([C@H]5CCOC5)c4n3)nn2)CC1` [Example 395], the IC50 turned out to be 300 nM.
For `O[C@@H]1CCN(c2ccc(Nc3ncc4c5ccncc5n([C@H]5CCOC5)c4n3)nc2)C1` [Example 396] the value was 238 nM.
For `O[C@@H]1CCN(c2ccc(Nc3ncc4c5ccncc5n([C@H]5CCOC5)c4n3)nn2)C1` [Example 397] the value was 340 nM; for `O[C@H]1CCC[C@@H]1n1c2cnccc2c2cnc(Nc3ccc(N4CCNCC4)cn3)nc21` [Example 398], 330 nM.
Under `CN(C)C1CCN(c2ccc(Nc3ncc4c5ccncc5n([C@H]5CCC[C@@H]5O)c4n3)nc2)CC1` [Example 399] stands 57 nM; under `CNC1CCN(c2ccc(Nc3ncc4c5ccncc5n([C@H]5CCC[C@@H]5O)c4n3)nc2)CC1` [Example 400], 301 nM; under `C[C@H]1CN(c2ccc(Nc3ncc4c5ccncc5n([C@H]5CCC[C@@H]5O)c4n3)nc2)CCN1` [Example 401], 170 nM.
For `CC1(C)CN(c2ccc(Nc3ncc4c5ccncc5n([C@H]5CCC[C@@H]5O)c4n3)nc2)CCN1` [Example 402], the IC50 is 175 nM.
Under `O[C@@H]1CCN(c2ccc(Nc3ncc4c5ccncc5n([C@H]5CCC[C@@H]5O)c4n3)nc2)C1` [Example 403] stands 350 nM; under `O[C@H]1CCC[C@@H]1n1c2cnccc2c2cnc(Nc3ccc(N4CCNCC4)nn3)nc21` [Example 404], 820 nM; under `CN(C)C1CCN(c2ccc(Nc3ncc4c5ccncc5n([C@H]5CCC[C@@H]5O)c4n3)nn2)CC1` [Example 405], 750 nM.
For `CNC1CCN(c2ccc(Nc3ncc4c5ccncc5n([C@H]5CCC[C@@H]5O)c4n3)nn2)CC1` [Example 406] the value was 360 nM; for `C[C@H]1CN(c2ccc(Nc3ncc4c5ccncc5n([C@H]5CCC[C@@H]5O)c4n3)nn2)CCN1` [Example 407], 35 nM; for `O[C@@H]1CCN(c2ccc(Nc3ncc4c5ccncc5n([C@H]5CCC[C@@H]5O)c4n3)nn2)C1` [Example 408], 44 nM.
As to `C[C@H](O)Cn1c2cnccc2c2cnc(Nc3ccc(N4CCNCC4)nn3)nc21` [Example 409], the IC50 was found to be 281 nM.
As for `C[C@H](O)Cn1c2cnccc2c2cnc(Nc3ccc(N4CCC(N(C)C)CC4)nn3)nc21` [Example 410], the IC50 was 240 nM.
Under `CNC1CCN(c2ccc(Nc3ncc4c5ccncc5n(C[C@H](C)O)c4n3)nn2)CC1` [Example 411] stands 430 nM.
Consider `C[C@H](O)Cn1c2cnccc2c2cnc(Nc3ccc(N4CCN[C@@H](C)C4)nn3)nc21` [Example 412], for which the IC50 is 14 nM.
For `C[C@H](O)Cn1c2cnccc2c2cnc(Nc3ccc(N4CCNC(C)(C)C4)nn3)nc21` [Example 413] the value was 33 nM.
For `C[C@H](O)Cn1c2cnccc2c2cnc(Nc3ccc(N4CC[C@@H](O)C4)nn3)nc21` [Example 414] the value was 2.6 nM.
Under `C[C@@H](O)Cn1c2cnccc2c2cnc(Nc3ccc(N4CCNCC4)nn3)nc21` [Example 415] stands 259 nM.
`C[C@@H](O)Cn1c2cnccc2c2cnc(Nc3ccc(N4CCC(N(C)C)CC4)nn3)nc21` [Example 416]: the IC50 came to 271 nM.
Consider `CNC1CCN(c2ccc(Nc3ncc4c5ccncc5n(C[C@@H](C)O)c4n3)nn2)CC1` [Example 417], for which the IC50 turned out to be 151 nM.
Under `C[C@@H](O)Cn1c2cnccc2c2cnc(Nc3ccc(N4CCNC(C)(C)C4)nn3)nc21` [Example 418] stands 112 nM.
Under `C[C@@H](O)Cn1c2cnccc2c2cnc(Nc3ccc(N4CC[C@@H](O)C4)nn3)nc21` [Example 419] stands 162 nM; under `C[C@H](O)Cn1c2cnccc2c2cnc(Nc3ccc(N4CCNCC4)cn3)nc21` [Example 421], 77 nM.
For `C[C@H](O)Cn1c2cnccc2c2cnc(Nc3ccc(N4CCC(N(C)C)CC4)cn3)nc21` [Example 422] the value was 69 nM; for `C[C@H](O)Cn1c2cnccc2c2cnc(Nc3ccc(N4CCN[C@@H](C)C4)cn3)nc21` [Example 423], 75 nM; for `C[C@H](O)Cn1c2cnccc2c2cnc(Nc3ccc(N4CC[C@@H](O)C4)cn3)nc21` [Example 424], 72 nM.
With `CNC1CCN(c2ccc(Nc3ncc4c5ccncc5n(C[C@@H](C)O)c4n3)nc2)CC1` [Example 425], the IC50 worked out at 73 nM.
For `C[C@@H](O)Cn1c2cnccc2c2cnc(Nc3ccc(N4CCNC(C)(C)C4)cn3)nc21` [Example 426] the value was 115 nM; for `c1cc2c3cnc(Nc4ccc(N5CCNCC5)nn4)nc3n([C@@H]3CCOC3)c2cn1` [Example 427], 24 nM.
Under `CNC1CCN(c2ccc(Nc3ncc4c5ccncc5n([C@@H]5CCOC5)c4n3)nn2)CC1` [Example 428] stands 59 nM.
Under `C[C@H]1CN(c2ccc(Nc3ncc4c5ccncc5n([C@@H]5CCOC5)c4n3)nn2)CCN1` [Example 429] stands 92 nM.
Consider `CC1(C)CN(c2ccc(Nc3ncc4c5ccncc5n([C@@H]5CCOC5)c4n3)nn2)CCN1` [Example 430], for which the IC50 amounted to 21 nM.
Under `CNC1CCN(c2ccc(Nc3ncc4c5ccncc5n([C@@H]5CCOC5)c4n3)nc2)CC1` [Example 431] stands 12 nM; under `CC1(C)CN(c2ccc(Nc3ncc4c5ccncc5n([C@@H]5CCOC5)c4n3)nc2)CCN1` [Example 432], 17 nM.
